Measurements published in US7851590B2, “Y2 selective receptor agonists for therapeutic interventions” (7TM Pharma A/S, priority 2005, dated 2010).

Legend:
[1] = biological target: T1, rhesus monkey Y2 receptor (Macaca mulatta, UniProt Q9GK74); assay: Rhesus monkey Y2 receptor affinity assay (competition binding with human 125I-PYY); design: The coding region of the rhesus monkey NPY-Receptors (Y1, Y2, Y4) were sub-cloned into the pcDNA3.1/Zeo vector; expressed in transfected cells; host or cells: CHO cells, stably transfected; details: CHO cells stably transfected with the rhesus monkey Y2 receptor; 12 pM human 125I-PYY, 3 hours at 4 C; read-out: Competition binding w 126I-PYY at Y2 (Ki)
T1 sequence (Q9GK74 1-381): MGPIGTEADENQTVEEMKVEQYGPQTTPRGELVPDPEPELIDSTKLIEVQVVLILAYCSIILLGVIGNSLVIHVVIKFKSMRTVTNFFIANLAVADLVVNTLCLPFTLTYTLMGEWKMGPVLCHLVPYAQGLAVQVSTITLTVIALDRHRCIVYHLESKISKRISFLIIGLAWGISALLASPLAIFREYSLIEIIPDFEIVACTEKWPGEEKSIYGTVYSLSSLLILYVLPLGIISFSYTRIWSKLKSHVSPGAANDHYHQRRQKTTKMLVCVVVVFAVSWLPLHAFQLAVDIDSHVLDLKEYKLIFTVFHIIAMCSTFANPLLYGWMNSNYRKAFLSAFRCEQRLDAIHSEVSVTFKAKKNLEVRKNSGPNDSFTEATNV
Procedure: The stable transfected CHO cells are transferred to 48-well culture plates one day prior assay at a density of 2,500 cells per well aiming at 5-8% binding of the radioactive ligand. […] Cells are washed twice in 0.5 ml of ice-cold buffer and 0.5-1 ml of lysis buffer (8 M Urea, 2% NP40 in 3 M acetic acid) is added and the bound radioactivity is counted in a gamma counter. Determinations are made in triplicates.

[2] = biological target: T1, rhesus monkey Y2 receptor; assay: Rhesus monkey Y2 receptor potency assay (phosphatidylinositol turnover, Gqi5); format: cell-based; design: The coding region of the rhesus monkey NPY-Receptors (Y1, Y2, Y4) were sub-cloned into the pcDNA3.1/Zeo vector; expressed in transfected cells; host or cells: COS-7 cells, transiently transfected; details: COS-7 cells transiently transfected with rhesus monkey Y2 receptor and Gqi5; μM; read-out: IP3 EC50 values at Y2
Procedure: Determinations are made in duplicates. EC50 values were calculated using a standard pharmacological data handling software, Prism 3.0 (graphPad Sofware, San Diego, USA).

CC[C@H](C)[C@H](NC(=O)[C@H](Cc1ccc(O)cc1)NC(=O)[C@H](CCCNC(=N)N)NC(=O)[C@H](CCCNC(=N)N)NC(=O)[C@H](CC(C)C)NC(=O)[C@H](CC(=O)O)NC(=O)[C@H](C)NC(=O)[C@H](C)NC(=O)[C@H](Cc1ccc(O)cc1)NC(=O)[C@H](CCC(N)=O)NC(=O)[C@H](C)NC(=O)[C@H](CCSC)NC(=O)[C@H](CCC(N)=O)NC(=O)[C@H](CCC(=O)O)NC(=O)[C@@H]1CCCN1C(=O)[C@@H](NC(=O)[C@H](C)NC(=O)[C@H](CC(N)=O)NC(=O)[C@H](CC(=O)O)NC(=O)CNC(=O)[C@@H]1CCCN1C(=O)[C@H](Cc1ccc(O)cc1)NC(=O)[C@@H](NC(=O)[C@@H]1CCCN1C(=O)[C@H](CCC(=O)O)NC(=O)[C@H](CC(C)C)NC(=O)[C@@H]1CCCN1C(=O)[C@H](C)N)C(C)C)[C@@H](C)O)C(=O)N[C@@H](CC(N)=O)C(=O)N[C@@H](CCSC)C(=O)N[C@@H](CC(C)C)C(=O)N[C@H](C(=O)N[C@@H](CCCNC(=N)N)C(=O)N1CCC[C@H]1C(=O)N[C@@H](CCCNC(=N)N)C(=O)N[C@@H](Cc1ccc(O)cc1)C(N)=O)[C@@H](C)O [PP, Pancreatic Polypeptide]
Ki [1]: > 1000 nM | EC50 [2]: > 1 µM
